Consider 7 molecules from ChEMBL document CHEMBL4359897, “Discovery of novel functionalized 1,2,4-triazoles as PARP-1 inhibitors in breast cancer: Design, synthesis and antitumor activity evaluation” (Eur J Med Chem, 2019).

Calls of active or inactive are those of the source. The rule behind the calls is not given here.

What is called IC50 is the concentration needed to halve the response being measured.

Experiment [1] deals with MCF7. Put plainly: Cytotoxicity against human MCF7 cells assessed as increase in extra cellular LDH at 2.5 to 5 uM incubated for 30 hrs by spectrophotometric based LDH assay. Format: functional, cell-based.
Experiment [2] deals with MCF7. The experiment in a line: Cytotoxicity against human MCF7 cells at 2.5 to 5 uM incubated for 30 hrs by MTT assay. Format: functional, cell-based.
The test system of experiment [3] is MCF7. Put plainly: Inhibition of cell migration in human MCF7 cells incubated for 30 hrs by scratch wound assay. It counts as functional, cell-based.
Experiment [4] relates to MCF7. The experiment in a line: Antiproliferative activity against human MCF7 cells assessed as increase in PARP1-89 protein expression at 5 uM incubated for 30 hrs by Western blot analysis. It counts as functional, cell-based. In general terms: A western blot detects proteins with antibodies after separation by electrophoresis.
Experiment [5] relates to MCF7. The experiment in a line: Inhibition of cell migration in human MCF7 cells at 2.5 to 5 uM incubated for 30 hrs by scratch wound assay relative to control. Format: functional.
Experiment [6] relates to MCF7. Put plainly: Antiproliferative activity against human MCF7 cells incubated for 30 hrs by hematoxylin staining based BrdU incorporation assay. Format: functional, cell-based.
Experiment [7] concerns the target Poly [ADP-ribose] polymerase 1 (Homo sapiens, UniProt P09874). The experiment in a line: Inhibition of recombinant human full length N-terminal GST- tagged PARP1 expressed in baculovirus infected sf9 cells using Colorimetric HRP as substrate incubated for 30 mins by UV/Vis spectrophotometer analysis.

Chain of Poly [ADP-ribose] polymerase 1 (P09874 whole entry): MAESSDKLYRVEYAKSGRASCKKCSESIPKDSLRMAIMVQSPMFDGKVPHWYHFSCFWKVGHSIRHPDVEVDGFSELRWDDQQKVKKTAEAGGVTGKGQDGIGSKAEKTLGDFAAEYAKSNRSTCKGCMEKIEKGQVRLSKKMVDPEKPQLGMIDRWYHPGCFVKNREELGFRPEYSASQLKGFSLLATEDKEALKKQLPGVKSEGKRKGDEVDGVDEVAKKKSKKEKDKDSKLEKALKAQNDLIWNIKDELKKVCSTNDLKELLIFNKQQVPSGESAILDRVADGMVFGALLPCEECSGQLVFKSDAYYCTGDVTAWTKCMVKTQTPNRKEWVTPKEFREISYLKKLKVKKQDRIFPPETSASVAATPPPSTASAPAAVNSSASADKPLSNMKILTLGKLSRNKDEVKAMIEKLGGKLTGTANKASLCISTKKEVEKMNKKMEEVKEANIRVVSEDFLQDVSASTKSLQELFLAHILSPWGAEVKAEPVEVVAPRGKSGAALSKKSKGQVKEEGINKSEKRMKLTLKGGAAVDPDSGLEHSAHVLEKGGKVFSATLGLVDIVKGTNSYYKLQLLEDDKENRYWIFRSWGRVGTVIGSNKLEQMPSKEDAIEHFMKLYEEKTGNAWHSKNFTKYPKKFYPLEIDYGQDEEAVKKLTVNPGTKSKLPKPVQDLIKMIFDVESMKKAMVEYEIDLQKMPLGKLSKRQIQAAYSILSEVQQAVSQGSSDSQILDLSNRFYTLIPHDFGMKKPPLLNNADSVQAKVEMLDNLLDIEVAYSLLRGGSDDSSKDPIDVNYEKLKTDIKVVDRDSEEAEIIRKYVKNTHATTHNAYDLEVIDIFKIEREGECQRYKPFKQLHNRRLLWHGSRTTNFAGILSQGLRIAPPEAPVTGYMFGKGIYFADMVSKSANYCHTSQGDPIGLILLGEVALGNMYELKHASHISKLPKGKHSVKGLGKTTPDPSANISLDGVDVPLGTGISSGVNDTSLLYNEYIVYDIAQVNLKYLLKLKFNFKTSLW

With `C=CCSc1nnc(-c2cc3ccccc3n2CC=C)n1-c1ccccc1`, the outcome in experiment [1], in experiment [2] and in experiment [4] was Active. In experiment [3], the inhibition entry is “Dose-dependent effect”. Moreover, the “inhibition (INH)” value in experiment [5] is 30 - 40%. Moreover, in experiment [6], the Activity entry was “Dose-dependent effect”. In experiment [7], the 50% inhibitory concentration (IC50) was 350 nM.

On to `S=c1[nH]nc(CSc2nnc(-c3cc4ccccc4[nH]3)n2-c2ccccc2)n1-c1ccccc1`, for which the outcome in experiment [1] was Active. Moreover, the IC50 in experiment [7] is 8080 nM.

For `S=c1[nH]nc(-c2cc3ccccc3[nH]2)n1-c1ccccc1`, the result in experiment [1], in experiment [2] and in experiment [4] was Active. Further, in experiment [3], the inhibition result was “Dose-dependent effect”. Besides, the “inhibition (INH)” value in experiment [5] is on record as 30 - 40%. Besides, the Activity result in experiment [6] was “Dose-dependent effect”. Also, the IC50 in experiment [7] was determined as 2100 nM.

Regarding `CC(=O)OC[C@H]1O[C@@H](Sc2nnc(-c3cc4ccccc4[nH]3)n2-c2ccccc2)[C@H](OC(C)=O)[C@@H](OC(C)=O)[C@@H]1OC(C)=O`, the result in experiment [1] and in experiment [2] was Active. Besides, the outcome in experiment [4] was inactive. In addition, the inhibition result in experiment [5] is “inactive”. Moreover, the Activity entry in experiment [6] was “Dose-dependent effect”. The half-maximal inhibitory concentration (IC50) in experiment [7] turned out to be 2220 nM.

Regarding `C=CCSc1nnc(-c2cc3ccccc3[nH]2)n1-c1ccccc1`, the result in experiment [1], in experiment [2] and in experiment [4] was Active. Besides, the inhibition result in experiment [3] was “Dose-dependent effect”. Further, the “inhibition (INH)” value in experiment [5] is given as 30 - 40%. The Activity result in experiment [6] was “Dose-dependent effect”. Also, the IC50 in experiment [7] was found to be 2400 nM.

In the case of `CC(O)CSc1nnc(-c2cc3ccccc3[nH]2)n1-c1ccccc1` (configuration not stated), in experiment [1], the outcome was Active. Further, in experiment [7], the IC50 came to 330 nM.

Consider `O=C(c1cc(Cc2n[nH]c(=O)c3ccccc23)ccc1F)N1CCN(C(=O)C2CC2)CC1`, for which the outcome in experiment [2] was Active.
